In PubChem BioAssay AID2834 (Southern Research Specialized Biocontainment Screening …, 2010):
Calls of active or inactive are those of the source.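 The calls were made as follows: active = more than 40% inhibition of the growth reporter signal at one or more tested doses; inactive = below 40% inhibition at every dose.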

Tested on: S. Typhimurium nmpC-GFP reporter (non-PhoP growth counter-screen), low Mg2+, 4 h
Experiment: non-PhoP GFP expression and growth suppression – purified and synthesized compounds, set 2, counter-screen for PhoP regulon inhibitor project, dose response (AID 2834)

SMILES | IC50
CCn1cc(C(=O)O)c(=O)c2cc(F)c(N3CCN(C(=S)Nc4ccccc4C)CC3)cc21 | > 150 µM (inactive)
S=C(NCc1ccc(Cl)cc1)Nc1ccc(Cl)cc1 | > 150 µM (inactive)
O=C(Nc1ccccc1)N1CCCN(Cc2ccc(F)cc2)C1 | > 150 µM (inactive)
O=C1C2=C(Nc3ccccc3SC2c2ccccc2Cl)c2ccccc21 (configuration not stated) | > 150 µM (inactive)
COc1ccccc1NC(=O)N1CCCN(Cc2ccccc2F)C1 | > 150 µM (inactive)
CCn1cc(C(=O)O)c(=O)c2cc(F)c(N3CCN(C(=S)Nc4ccc(Cl)cc4)CC3)cc21 | 131 µM
O=C1C2=C(Nc3ccccc3SC2c2ccccc2C(F)(F)F)c2ccccc21 (configuration not stated) | > 150 µM (inactive)
O=C(NCc1ccccc1)N1CCCN(Cc2ccccc2F)C1 | > 150 µM (inactive)
O=C(Nc1ccc(Br)cc1)N1CCCN(Cc2ccccc2F)C1 | > 150 µM (inactive)
S=C(NCc1ccc(Cl)cc1)Nc1cccnc1 | > 150 µM (inactive)
O=C(Nc1ccccc1Cl)N1CCCN(Cc2ccccc2F)C1 | > 150 µM (inactive)
Cc1ccc(Nc2cc(C)c3c(O)cccc3n2)cc1C | < 0.15 µM
Cc1ccc(CN2CCCN(C(=O)Nc3ccc(Cl)cc3)C2)cc1 | > 150 µM (inactive)
O=C1c2ccccc2C2=Nc3ccccc3SC(c3ccccc3F)C12 (configuration not stated) | < 0.15 µM
O=C1C2=C(Nc3ccccc3SC2c2ccco2)c2ccccc21 (configuration not stated) | < 0.15 µM
N#C/C(=C\c1ccc[nH]1)C(=O)NC1CC1 | < 0.15 µM
Cc1cccc(NC(=S)NCc2ccc(Cl)cc2)c1 | > 150 µM (inactive)
S=C(NCc1ccc(Cl)cc1)Nc1ccc(Br)cc1 | > 150 µM (inactive)
COc1ccc(NC(=S)NCc2ccc(Cl)cc2)cc1 | > 150 µM (inactive)

SMILES | IC50
Cc1ccc(NC(=S)NCc2ccc(Cl)cc2)cc1 | > 150 µM (inactive)
COc1c(N2CCN(C(=S)NCc3ccccc3)C(C)C2)c(F)cc2c(=O)c(C(=O)O)cn(C3CC3)c12 (configuration not stated) | < 0.15 µM
CCn1cc(C(=O)O)c(=O)c2cc(F)c(N3CCN(C(=S)Nc4ccccc4C(F)(F)F)CC3)cc21 | 76.4 µM
CN1CCN(C2=Cc3cc(Cl)ccc3Sc3cc(F)ccc32)CC1 | < 0.15 µM
COc1ccc(CNC(=S)Nc2ccncc2)cc1 | > 150 µM (inactive)
O=C1C2=C(Nc3ccccc3SC2c2cccc(Cl)c2)c2ccccc21 (configuration not stated) | > 150 µM (inactive)
O=C(Nc1ccc(Cl)cc1)N1CCCN(Cc2ccccc2F)C1 | < 0.15 µM
O=C(Nc1cccnc1)c1cc(Br)c(Br)s1 | < 0.15 µM
CN(C)CCCN(C(=O)CCc1ccccc1)c1nc2ccc(Cl)cc2s1 | < 0.15 µM
O=C(Nc1nnc(-c2cccs2)o1)c1cccc(C(F)(F)F)c1 | < 0.15 µM
O=C1C2=C(Nc3ccccc3SC2c2ccccc2Br)c2ccccc21 (configuration not stated) | > 150 µM (inactive)
CCn1cc(C(=O)O)c(=O)c2cc(F)c(N3CCN(C(=S)NCc4ccccc4)CC3)cc21 | > 150 µM (inactive)
CCOc1ccc(NC(=S)N2CCN(c3cc4c(cc3F)c(=O)c(C(=O)O)cn4CC)CC2)cc1 | > 150 µM (inactive)
O=C1C2=C(Nc3ccccc3SC2c2ccsc2)c2ccccc21 (configuration not stated) | > 150 µM (inactive)
COc1ccc(NC(=O)c2cc(Br)c(Br)s2)cn1 | < 0.15 µM
Fc1ccccc1NC(=S)NCc1ccc(Cl)cc1 | > 150 µM (inactive)
O=c1c2ccccc2[nH]c2ccc(F)cc12 | < 0.15 µM
CCCCn1c(NS(=O)(=O)c2ccccc2)c(S(=O)(=O)c2ccc(C)cc2)c2nc3ccccc3nc21 | < 0.15 µM
CCCCCNC(=O)c1cn(CC)c2cc(N3CCN(C)CC3)c(F)cc2c1=O | < 0.15 µM

SMILES | IC50
O=S(=O)(Nc1c(S(=O)(=O)c2ccccc2)c2nc3ccccc3nc2n1C1CCCCC1)c1ccccc1 | < 0.15 µM
C1=C(CCNc2ncnc3c2[nH]c2ccccc23)CCCC1 | < 0.15 µM
COc1cccc(C2Sc3ccccc3NC3=C2C(=O)c2ccccc23)c1 (configuration not stated) | > 150 µM (inactive)
S=C(NCc1ccc(Cl)cc1)Nc1cccc(Cl)c1 | > 150 µM (inactive)
S=C(NCc1ccccc1Cl)Nc1ccncc1 | > 150 µM (inactive)
O=C(Nc1ccc(Cl)cc1)N1CCCN(Cc2ccc(F)cc2)C1 | > 150 µM (inactive)
CCn1cc(C(=O)O)c(=O)c2cc(F)c(N3CCN(C(=S)NC(=O)c4ccccc4Cl)CC3)cc21 | < 0.15 µM
CN1CCc2nc(SCC(=O)Nc3cccc(F)c3)c(C#N)c(-c3cccs3)c2C1 | < 0.15 µM
CCn1cc(C(=O)O)c(=O)c2cc(F)c(N3CCN(C(=S)NC(=O)c4ccccc4F)CC3)cc21 | < 0.15 µM
COc1cccc(NC(=S)NCc2ccc(Cl)cc2)c1 | > 150 µM (inactive)
O=C1C2=C(Nc3ccccc3SC2c2ccc(C(F)(F)F)cc2)c2ccccc21 (configuration not stated) | > 150 µM (inactive)
O=C(O)c1cn(-c2ccc(F)cc2)c2cc(Cl)c(F)cc2c1=O | < 0.15 µM
CCn1cc(C(=O)O)c(=O)c2cc(F)c(N3CCN(C(=S)Nc4ccccc4Cl)CC3)cc21 | > 150 µM (inactive)
O=C(Nc1ccccc1)N1CCCN(Cc2ccccc2F)C1 | > 150 µM (inactive)
CSc1nc2cc(Oc3cccc(Cl)c3Cl)c(Cl)cc2[nH]1 | < 0.15 µM
CCn1cc(C(=O)O)c(=O)c2cc(F)c(N3CCN(C(=S)NC)CC3)cc21 | > 150 µM (inactive)
CCCCn1c(NS(=O)(=O)c2ccc(C)cc2)c(S(=O)(=O)c2ccccc2)c2nc3ccccc3nc21 | < 0.15 µM
COc1ccccc1Nc1nc(NCc2ccco2)c2ccccc2n1 | < 0.15 µM
O=[N+]([O-])c1ccc(CNC2CCCc3ccccc32)cc1 (configuration not stated) | < 0.15 µM
